The text below walks through data of patent US20060287320A1, “Preparation of thioarabinofuranosyl compounds and use thereof” (Southern Research Institute, priority 1998, published 2006).

One data set deals with PC-3 Prostate. Nature of the data set: In vitro IC50, 72 hour exposure, Natural Red assay. In kind it is cell-based. The settings on record: read-out: IC50 Molar Values. As for the experimental part:
(§1) EXAMPLE 3 The following in vitro tests were carried out.
(§2) The above tests were carried out with a 72 hour exposure to the compound using Natural Red assay for all cell lines except SK-MEL 28 which was done with SRB assay.

For another data set, the system named is ZR-75-1 Mammary. Nature of the data set: In vitro IC50, 72 hour exposure, Natural Red assay. The conditions noted are these: Homo sapiens, read-out: IC50 Molar Values. In kind it is cell-based. As for the experimental part: as §1, §2
In the next data set the test system is DLD-1 Colon. Nature of the data set: In vitro IC50, 72 hour exposure, Natural Red assay. It is filed as cell-based. The settings on record: Homo sapiens, read-out: IC50 Molar Values. Here is the method:
as §1, §2

The test system of a further data set is LOX IMV1 Melanoma. Description: In vitro IC50, 72 hour exposure, Natural Red assay. It is filed as cell-based. The settings on record: read-out: IC50 Molar Values. As for the experimental part:
as §1, §2

A further data set deals with CAK1-1 Renal. Description: In vitro IC50, 72 hour exposure, Natural Red assay. It is filed as cell-based. The conditions noted are these: read-out: IC50 Molar Values. Here is the method: as §1, §2
Another data set deals with NC1-H23 Lung. Description: In vitro IC50, 72 hour exposure, Natural Red assay. It is filed as cell-based. The conditions noted are these: read-out: IC50 Molar Values. Here is the method: as §1, §2
The test system of another data set is SC HCT-116 Colon Tumor. Nature of the data set: Response of SC HCT-116 Colon Tumor to Treatment. In kind it is in vivo. The conditions noted are these: Q 1D × 9 day 6. Here is the method: (§3) The following in vivo tests were carried out to illustrate the effectiveness of the compounds of the present invention.
In the next data set the test system is SC Colon 36 Tumor. Nature of the data set: Response of SC Colon 36 Tumor to Treatment. In kind it is in vivo. The settings on record: 18 Mg/Kg IP, Q 1D × 9 day 9. Here is the method:
as §3

For another data set, the system named is SC CAKI-1 Renal Tumor. Description: Response of SC CAKI-1 Renal Tumor to Treatment. In kind it is in vivo. Here is the method: as §3
Data set [1] has as its system CEM cells. Nature of the data set: Initial half-life of triphosphates in CEM cells. In kind it is cell-based. The conditions noted are these: CEM cells after 1 hour with 100 nM radiolabeled nucleoside, then fresh medium; 5′-triphosphate peak. As for the experimental part: Samples were collected at various times after the cells were resuspended in fresh medium, and the amount of radioactivity in the 5'-triphosphate peak was determined using SAX HPLC. The data presented are the mean and standard deviation from 3 separate experiments.

Data set [2] deals with CEM cells. Description: Retention of araCTP and T-araCTP in CEM cells (FIG. 2). It is filed as cell-based. Here is the method:
[…]. Samples were collected at various times after the cells were resuspended in fresh medium, and the amount of radioactivity in the 5′-triphosphate peak was determined using SAX HPLC. In this experiment there was 0.639 pmoles araCTP/10^6 cells and 0.246 pmoles of T-araCTP after the 1 hour incubation with radiolabeled compound.

The subject of data set [3] is CEM cells. Description: Effect of F-dUrd on metabolism (deamination) in CEM cells. In kind it is cell-based. The settings on record: 100 nM, incubation time 1 hour. Here is the method: The complete metabolism of each compound was determined as described in the legend to Table 12, and the percent of deaminated metabolites for each compound was determined.
The test system of data set [4] is CEM cells. Nature of the data set: Complete metabolism of dCyd, T-dCyd, araC and T-araC in CEM cells. In kind it is cell-based. The conditions noted are these: 100 nM, incubation 1 hour. Here is the method: The complete metabolism of each compound was determined: The medium was analyzed for the original compound, its deaminated form using reverse phase HPLC, and H20; the acid-soluble extract was analyzed by SAX HPLC for phosphorylated metabolites; and the incorporation of radioactivity into acid-precipitable material (DNA) was determined.

A further data set concerns CEM cells (wild-type). Nature of the data set: Metabolism of dCyd and analogs in wild-type CEM cells. In kind it is cell-based. The conditions noted are these: WT CEM cells; 100 nM; incubation time 0.25 hours. As for the experimental part: (§4) The radioactivity in the 5′-triphosphate peak and the incorporation of radioactivity in the acid-insoluble fraction (DNA) was determined.

The nature of data set [5]: Phosphorylation in cell-free CEM extracts, wild-type. In kind it is biochemical. The conditions noted are these: wild-type CEM cell extract; 1 μm substrate. As for the experimental part:
(§5) The number in parentheses is the number of experiments performed. […] At various times after the initiation of the experiment, an aliquot of each reaction volume was removed and placed on DE-81 filters. The filters were washed with 1 mM ammonium formate and ethanol, and the amount of radioactivity on each filter was determined. […] This assay was verified by HPLC.

A further data set relates to araC-resistant CEM cells. Description: Metabolism of dCyd and analogs in araC-resistant CEM cells. It is filed as cell-based. The conditions noted are these: 100 nM, incubation time 0.25 hours. As for the experimental part:
as §4

Data set [6] can be described thus: Phosphorylation in cell-free CEM extracts, araC-resistant. The conditions noted are these: phosphorylation in araC-resistant vs wild-type CEM extract. In kind it is biochemical. Here is the method:
as §5

The structures appear in SMILES notation. Some results are limits rather than exact numbers.

For orientation: IC50 means the concentration that gives 50% inhibition. `Nc1nc(=O)n([C@@H]2S[C@H](CO)[C@@H](O)[C@@H]2O)cc1F` [5-fluorothioaraC, 1-(4-Thio-β-D-arabinofuranosyl)5-fluorocytosine]: the IC50 in the data set with PC-3 Prostate worked out at 100 µM; with ZR-75-1 Mammary it was 0.6 µM; with DLD-1 Colon, 80 µM; in the data set with LOX IMV1 Melanoma, 6 µM; in the data set with CAK1-1 Renal, 20 µM; with NC1-H23 Lung it was 3 µM.

On to `CCCCCCCCCCCCCCCC(=O)Nc1ccn([C@@H]2O[C@H](CO)[C@@H](O)[C@@H]2O)c(=O)n1` [Palmo-ARA-C], for which, in the data set with SC HCT-116 Colon Tumor (15 Mg/Kg IP), the “Days Delay (T − C)” value turned out to be 6.0 days, the “Days to 2 Doubling” value came to 14.9 days, the “Non-Specific Deaths/Total” value is 0/6 and the “Tumor Free Surv/Total” value was 0/6. In the data set with SC HCT-116 Colon Tumor (15 Mg/Kg IP), the “Tumor Regression Number of Complete” value came out at 0 and the “Tumor Regression Number of Partial” value worked out at 0. In addition, in the data set with SC HCT-116 Colon Tumor (22.5 Mg/Kg IP), the “Days Delay (T − C)” value worked out at 15.1 days, the “Days to 2 Doubling” value amounted to 24.0 days, the “Non-Specific Deaths/Total” value is given as 0/6 and the “Tumor Free Surv/Total” value was 0/6. In the data set with SC HCT-116 Colon Tumor (22.5 Mg/Kg IP), the “Tumor Regression Duration Med” value amounted to 24.2 days, the “Tumor Regression Duration Range (Days)” value is given as 24-24 Days, the “Tumor Regression Number of Complete” value came out at 1 and the “Tumor Regression Number of Partial” value stood at 0. Also, in the data set on SC Colon 36 Tumor, the “Days Delay (T − C)” value is more than 38.5 days, the “Days to 2 Doubling” value is more than 49.0 days, the “Non-Specific Deaths/Total” value is 0/5 and the “Tumor Free Surv/Total” value was 4/5. Also, in the data set on SC Colon 36 Tumor, the “Tumor Regression Duration Med” value was 34.6 days, the “Tumor Regression Duration Range (Days)” value is recorded as 35-35 Days, the “Tumor Regression Number of Complete” value was determined as 5 and the “Tumor Regression Number of Partial” value amounted to 0. Further, in the data set with SC CAKI-1 Renal Tumor (22.5 Mg/Kg IP, 0 1D × 9 day 7), the “Days Delay (T − C)” value amounted to 26.5 days, the “Days to 3 Doubling” value was determined as 36.0 days, the “Non-Specific Deaths/Total” value is given as 1/6 and the “Tumor Free Surv/Total” value was 0/6. Also, in the data set on SC CAKI-1 Renal Tumor (22.5 Mg/Kg IP, 0 1D × 9 day 7), the “Tumor Regression Duration Med” value amounted to 9.1 days, the “Tumor Regression Duration Range (Days)” value is listed as 9-9 Days, the “Tumor Regression Number of Complete” value came out at 1 and the “Tumor Regression Number of Partial” value turned out to be 0. In the data set with SC CAKI-1 Renal Tumor (45 Mg/Kg IP, Q 1D × 5 day 7), the “Days Delay (T − C)” value stood at 31.7 days, the “Days to 3 Doubling” value turned out to be 41.2 days, the “Non-Specific Deaths/Total” value is 4/6 and the “Toxicity remark under Days Delay (T − C)” value is reported as “(Toxic)”. In addition, in the data set on SC CAKI-1 Renal Tumor (45 Mg/Kg IP, Q 1D × 5 day 7), the “Tumor Free Surv/Total” value is 0/6, the “Tumor Regression Number of Complete” value stood at 0 and the “Tumor Regression Number of Partial” value came out at 0.

In the case of `Nc1ccn(C2SC(COP(=O)(O)OP(=O)(O)OP(=O)(O)O)C(O)C2O)c(=O)n1` (stereo not shown) [T-araCTP], the “Initial Half-Life, Hours (SD)” value in the data set on CEM cells [1] was 10.8 ± 1.80 h. Further, the “T-araCTP after the 1 hour incubation” value in the data set on CEM cells [2] turned out to be 0.246 pmol.

As for `Nc1ccn(C2CC(O)C(COP(=O)(O)OP(=O)(O)OP(=O)(O)O)S2)c(=O)n1` (stereo not shown) [T-dCTP], the “Initial Half-Life, Hours (SD)” value with CEM cells [1] came out at 1.10 ± 0.35 h.

Take `Nc1ccn([C@@H]2O[C@H](COP(=O)(O)OP(=O)(O)OP(=O)(O)O)[C@@H](O)[C@@H]2O)c(=O)n1` [araCTP]: in the data set on CEM cells [1], the “Initial Half-Life, Hours (SD)” value turned out to be 5.31 ± 0.31 h. Further, the “araCTP after the 1 hour incubation” value with CEM cells [2] (CEM cells, 1 hour with 5 nM [5-3H]araC) worked out at 0.639 pmoles/10^6 cells.

Turning to `Nc1ccn([C@H]2C[C@H](O)[C@@H](COP(=O)(O)OP(=O)(O)OP(=O)(O)O)O2)c(=O)n1` [dCTP], the “Initial Half-Life, Hours (SD)” value with CEM cells [1] was 0.94 ± 0.16 h.

As for `Nc1ccn([C@H]2C[C@H](O)[C@@H](CO)O2)c(=O)n1` [dCyd, 2′-deoxycytidine], the “Percent Deamination” value in the data set on CEM cells [3] (F-dUrd 0 μM) came out at 32%. Besides, the “Percent Deamination” value with CEM cells [3] (F-dUrd 10 μM) turned out to be 22%. Also, in the data set with CEM cells [4], the “DNA (percent of total)” value was 3% of total and the “Original Compound (percent of total)” value is reported as 38% of total. For the same compound, in the data set with CEM cells (wild-type), the DNA came to 1.19 pmoles/10^6 cells and the Total was found to be 3.46 pmoles/10^6 cells. For the same compound, the “Phosphorylation, Wild-type” value in [5] turned out to be 240 ± 33 pmoles/mg protein/minute. In the data set with araC-resistant CEM cells, the DNA was 0.011 pmoles/10^6 cells, the “DNA (percent of WT)” value is reported as 0.89% of WT, the Total was 0.032 pmoles/10^6 cells and the “Total (percent of WT)” value was 0.91% of WT. Further, the Percent of wild-type in data set [6] is 1.5% of wild-type.
